Numbers after ± are expanded uncertainties.
Assay: xn = mol fraction of the nth substance listed
Conditions: 101 kPa, Liquid; for speed of sound: Sing-around technique in a fixed-path interferometer; for mass density: Vibrating tube method; for viscosity: Capillary tube (Ostwald / Ubbelohde) method

NCCN [ethane-1,2-diamine] + CCCCCCCCO
Conditions | mass density [kg/m3] | speed of sound [m/s] | viscosity [mPa·s]
293.15 K, x1 = 0.0595 | 828.135 ± 0.14 | 1373.2 ± 0.9 | –
293.15 K, x1 = 0.1021 | 830.247 ± 0.14 | 1379.6 ± 0.9 | –
293.15 K, x1 = 0.143 | 832.248 ± 0.14 | 1386.6 ± 0.9 | –
293.15 K, x1 = 0.2012 | 835.047 ± 0.15 | 1396.5 ± 0.9 | –
293.15 K, x1 = 0.2633 | 838.043 ± 0.15 | 1407.3 ± 1 | –
293.15 K, x1 = 0.3122 | 839.349 ± 0.16 | 1412.6 ± 1 | –
293.15 K, x1 = 0.4113 | 844.656 ± 0.17 | 1433.8 ± 1 | –
293.15 K, x1 = 0.4919 | 848.413 ± 0.17 | 1450.2 ± 1 | –
293.15 K, x1 = 0.5973 | 854.134 ± 0.18 | 1475.6 ± 1.1 | –
293.15 K, x1 = 0.7019 | 861.054 ± 0.2 | 1508.3 ± 1.1 | –
293.15 K, x1 = 0.7938 | 868.882 ± 0.21 | 1546.3 ± 1.2 | –
293.15 K, x1 = 0.8436 | 874.136 ± 0.21 | 1573.2 ± 1.2 | –
293.15 K, x1 = 0.8941 | 881.269 ± 0.22 | 1609.4 ± 1.3 | –
293.15 K, x1 = 0.9546 | 889.526 ± 0.23 | 1651.7 ± 1.3 | –
298.15 K, x1 = 0.0595 | 824.621 ± 0.14 | 1356.2 ± 0.9 | –
298.15 K, x1 = 0.0596 | – | – | 6.934 ± 0.04
298.15 K, x1 = 0.1021 | 826.683 ± 0.14 | 1362.6 ± 0.9 | 6.834 ± 0.04
298.15 K, x1 = 0.143 | 828.632 ± 0.14 | 1369.4 ± 0.9 | 6.713 ± 0.04
298.15 K, x1 = 0.2012 | 831.36 ± 0.15 | 1379.3 ± 0.9 | 6.457 ± 0.039
298.15 K, x1 = 0.2633 | 834.276 ± 0.15 | 1389.9 ± 1 | 6.099 ± 0.038
298.15 K, x1 = 0.3122 | 835.547 ± 0.15 | 1397.8 ± 1 | 5.734 ± 0.036
298.15 K, x1 = 0.4113 | 840.743 ± 0.16 | 1415.9 ± 1 | 4.957 ± 0.033
298.15 K, x1 = 0.4919 | 844.426 ± 0.17 | 1432 ± 1 | 4.251 ± 0.029
298.15 K, x1 = 0.5973 | 850.038 ± 0.18 | 1457.1 ± 1.1 | 3.406 ± 0.024
298.15 K, x1 = 0.7019 | 856.833 ± 0.19 | 1489 ± 1.1 | 2.707 ± 0.019
298.15 K, x1 = 0.7938 | 864.539 ± 0.2 | 1526.5 ± 1.2 | 2.214 ± 0.017
298.15 K, x1 = 0.8436 | 869.72 ± 0.21 | 1551.8 ± 1.2 | 1.985 ± 0.015
298.15 K, x1 = 0.8941 | 876.764 ± 0.22 | 1582.4 ± 1.2 | 1.751 ± 0.014
298.15 K, x1 = 0.9546 | 884.925 ± 0.23 | 1627.9 ± 1.3 | 1.54 ± 0.013
303.15 K, x1 = 0.0595 | – | 1338.9 ± 0.9 | –
303.15 K, x1 = 0.0596 | – | – | 5.792 ± 0.035
303.15 K, x1 = 0.1021 | – | 1345.7 ± 0.9 | 5.694 ± 0.035
303.15 K, x1 = 0.143 | – | 1352.5 ± 0.9 | 5.569 ± 0.034
303.15 K, x1 = 0.2012 | – | 1362.3 ± 0.9 | 5.331 ± 0.034
303.15 K, x1 = 0.2633 | – | 1372.1 ± 0.9 | 5.041 ± 0.032
303.15 K, x1 = 0.3122 | – | 1379.9 ± 1 | 4.75 ± 0.031
303.15 K, x1 = 0.4113 | – | 1398.3 ± 1 | 4.144 ± 0.028
303.15 K, x1 = 0.4919 | – | 1414 ± 1 | 3.595 ± 0.024
303.15 K, x1 = 0.5973 | – | 1438.7 ± 1.1 | 2.917 ± 0.02
303.15 K, x1 = 0.7019 | – | 1469.9 ± 1.1 | 2.395 ± 0.017
303.15 K, x1 = 0.7938 | – | 1506.3 ± 1.2 | 1.956 ± 0.015
303.15 K, x1 = 0.8436 | – | 1530.5 ± 1.2 | 1.748 ± 0.014
303.15 K, x1 = 0.8941 | – | 1559.9 ± 1.2 | 1.532 ± 0.013
303.15 K, x1 = 0.9546 | – | 1604.9 ± 1.3 | 1.34 ± 0.012
308.15 K, x1 = 0.0595 | 817.544 ± 0.15 | 1322.8 ± 0.9 | –
308.15 K, x1 = 0.0596 | – | – | 4.848 ± 0.03
308.15 K, x1 = 0.1021 | 819.514 ± 0.15 | 1329 ± 0.9 | 4.757 ± 0.03
308.15 K, x1 = 0.143 | 821.37 ± 0.15 | 1335.8 ± 0.9 | 4.662 ± 0.03
308.15 K, x1 = 0.2012 | 823.957 ± 0.15 | 1345.5 ± 0.9 | 4.461 ± 0.029
308.15 K, x1 = 0.2633 | 826.723 ± 0.16 | 1355.7 ± 0.9 | 4.211 ± 0.027
308.15 K, x1 = 0.3122 | 827.934 ± 0.16 | 1360.7 ± 1 | 3.975 ± 0.026
308.15 K, x1 = 0.4113 | 832.902 ± 0.17 | 1380.8 ± 1 | 3.497 ± 0.024
308.15 K, x1 = 0.4919 | 836.434 ± 0.18 | 1396.4 ± 1 | 3.054 ± 0.021
308.15 K, x1 = 0.5973 | 841.825 ± 0.19 | 1420.5 ± 1.1 | 2.515 ± 0.018
308.15 K, x1 = 0.7019 | 848.372 ± 0.2 | 1451.2 ± 1.1 | 2.031 ± 0.015
308.15 K, x1 = 0.7938 | 855.829 ± 0.21 | 1487.3 ± 1.2 | 1.669 ± 0.013
308.15 K, x1 = 0.8436 | 860.863 ± 0.22 | 1512.4 ± 1.2 | 1.5 ± 0.012
308.15 K, x1 = 0.8941 | 867.723 ± 0.22 | 1546.7 ± 1.2 | 1.342 ± 0.011
308.15 K, x1 = 0.9546 | 875.69 ± 0.23 | 1586.8 ± 1.3 | 1.2 ± 0.011
313.15 K, x1 = 0.0595 | 813.972 ± 0.14 | 1306.6 ± 0.9 | –
313.15 K, x1 = 0.1021 | 815.903 ± 0.15 | 1313.3 ± 0.9 | –
313.15 K, x1 = 0.143 | 817.713 ± 0.15 | 1319.7 ± 0.9 | –
313.15 K, x1 = 0.2012 | 820.239 ± 0.15 | 1329 ± 0.9 | –
313.15 K, x1 = 0.2633 | 822.931 ± 0.16 | 1339.1 ± 0.9 | –
313.15 K, x1 = 0.3122 | 824.111 ± 0.16 | 1343.9 ± 1 | –
313.15 K, x1 = 0.4113 | 828.963 ± 0.17 | 1363.5 ± 1 | –
313.15 K, x1 = 0.4919 | 832.42 ± 0.17 | 1378.9 ± 1 | –
313.15 K, x1 = 0.5973 | 837.701 ± 0.18 | 1402.6 ± 1.1 | –
313.15 K, x1 = 0.7019 | 844.123 ± 0.2 | 1432.8 ± 1.1 | –
313.15 K, x1 = 0.7938 | 851.455 ± 0.21 | 1468.2 ± 1.2 | –
313.15 K, x1 = 0.8436 | 856.411 ± 0.21 | 1492.4 ± 1.2 | –
313.15 K, x1 = 0.8941 | 863.18 ± 0.22 | 1526.1 ± 1.2 | –
313.15 K, x1 = 0.9546 | 871.049 ± 0.23 | 1565.6 ± 1.3 | –

Source: the NIST ThermoML archive (doi:10.1016/j.jct.2012.01.022)
